Assay results published in patent publication US8193191B2, “Urotensin II receptor antagonists” (Janssen Pharmaceutica N.V., priority 2006, dated 2012).
Read-outs that look alike come from different tables or passages of the source.

What was measured:
[1] = target: T1, rat GPR14 (U-II receptor) (Rattus norvegicus, UniProt P49684); test: Rat UII Calcium Mobilization FLIPR Assay; format: cell-based; details: average value for the compound tested; read-out: Rat UII FLIPR Average IC50
T1 construct: expressed in transfected cells
T1 sequence (P49684 1-386): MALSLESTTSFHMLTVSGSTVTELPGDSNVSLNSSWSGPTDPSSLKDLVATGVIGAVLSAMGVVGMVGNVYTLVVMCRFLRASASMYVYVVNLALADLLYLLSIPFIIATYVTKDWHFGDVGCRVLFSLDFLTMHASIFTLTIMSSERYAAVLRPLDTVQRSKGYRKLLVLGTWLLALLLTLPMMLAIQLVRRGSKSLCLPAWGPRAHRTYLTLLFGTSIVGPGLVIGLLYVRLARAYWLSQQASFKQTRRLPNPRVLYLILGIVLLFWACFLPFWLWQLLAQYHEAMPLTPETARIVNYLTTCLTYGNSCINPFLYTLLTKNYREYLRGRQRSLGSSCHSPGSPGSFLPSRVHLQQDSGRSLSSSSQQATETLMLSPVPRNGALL
Procedure, shortened: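 Fluorescent calcium signals were recorded at room temperature (23° C) by FLIPR. Stable rat U-II receptor CHO lines had been dye-loaded for 1 h at 37° C in pH 7.4 HBSS containing 20 mM HEPES, 0.1% BSA and 2.5 mM probenecid.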

[2] = target: T2, Human UII receptor, 6D9 human rhabdomyosarcoma cells (Homo sapiens, UniProt Q9UKP6); test: Human UII Calcium Mobilization Assay; format: cell-based; details: average value, FLIPR TETRA, read-out: Human UII Ca^+ Mobilization Average IC50
T2 construct: 6D9: isolated by dilution subcloning of RMS13 cells, ATCC® Number: CRL-2061; host or cells: 6D9 human rhabdomyosarcoma cells (subclone of RMS13)
T2 sequence (Q9UKP6 1-389): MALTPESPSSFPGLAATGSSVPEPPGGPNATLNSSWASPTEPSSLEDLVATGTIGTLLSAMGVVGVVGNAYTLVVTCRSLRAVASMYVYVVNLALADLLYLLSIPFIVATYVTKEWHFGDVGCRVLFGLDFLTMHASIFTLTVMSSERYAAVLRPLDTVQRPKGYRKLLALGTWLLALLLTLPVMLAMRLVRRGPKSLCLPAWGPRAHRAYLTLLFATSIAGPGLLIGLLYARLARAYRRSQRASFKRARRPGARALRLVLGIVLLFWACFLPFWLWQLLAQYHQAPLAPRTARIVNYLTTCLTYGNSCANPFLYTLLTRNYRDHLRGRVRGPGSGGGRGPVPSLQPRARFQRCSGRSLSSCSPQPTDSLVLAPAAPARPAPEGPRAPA
Protocol: 6D9 human rhabdomyosarcoma cells were seeded into tissue culture treated 384-well black-walled clear bottom plates (3712, Corning Incorporated, Corning, N.Y.) at 8,000 cells/well in 25 μL of culture medium, and maintained in an incubator (5% CO2 at 37° C.) for 22 hrs prior to the calcium mobilization assay. 25 μL of dye solution was added to the wells such that the final liquid volume before agonist/antagonist treatment was 50 μL for all assays. The cell plates were incubated at 37° C. for 45 minutes and the fluorescence intensity was measured on a Fluorometric Imaging Plate Reader (FLIPR^TETRA, Molecular Devices, Sunnyvale, Calif.).
Antagonist and agonist U-II were added at room temperature on the FLIPR^TETRA, and the fluorescence intensity before and after addition was measured over a period of 4 minutes. The dye incubation time and temperature as well as instrument setting was adjusted so the fluorescence intensity could be compared between plates on the same day. EC50 and IC50 were analyzed using GraphPad Prism 4 software (GraphPad Software Inc., San Diego, Calif.).
Materials and reagent Preparation: Human Rhabdomyosarcoma cells (6D9: isolated by dilution subcloning of RMS13 cells, ATCC® Number: CRL-2061, American Type Culture Collection ATCC, Manassas, Va.) was maintained in RPMI-1640 medium (30-2001, ATCC, Manassas, Va.) supplemented with 10% (v/v) Fetal Bovine Serum (SH30071.03, Hyclone, Logan, Utah).
Dye preparation: BD™ Calcium Assay Kit (80500-301, BD Biosciences, Rockville, Md.) was prepared according to the manufacture's instruction in 1× Hanks' balanced salt solution (HBSS, 21-023-CV, Mediatech, Inc. Herndon, Va.) containing 20 mM HEPES buffer (25-060-CI, Mediatech, Inc. Herndon, Va.). Final dye loading conditions included 1.25 mM probenecid (P36400, Invitrogen, Carlsbad, Calif.) and 0.01% FBS.
Urantide (PUT-3639-PI, Peptide International, Louisville, Ky.) was prepared in water at 5 mM. For assays, U-II agonist, U-II antagonist and urantide were diluted with HBSS/HEPES containing 0.01% FBS.
Test compounds were dissolved in DMSO at 10 mM concentration. The serial dilutions were carried out in HBSS/HEPES. The highest final DMSO concentration was at 0.1%.

[3] = target: T3, endogenous human UII receptor (Homo sapiens, UniProt Q9UKP6); test: Human Radioligand Binding Assay ((^125I)-U-II binding to human skeletal muscle myoblasts)
T3 sequence (Q9UKP6 1-389): T2 sequence (Q9UKP6 1-389)

[4] = read-out: Human UII Average Binding Ki, average value, (^125I)-U-II binding to human skeletal muscle myoblasts (HSMM), 25° C., 3 h

| IC50 [1] | IC50 [2] | Ki [3] | Compound | Ki [3, 4] |
| --- | --- | --- | --- | --- |
| 11 nM | 910 nM | 50 nM | COc1ccc([C@@H](CCCNC(=O)c2ccno2)N2C(=O)c3cccc(N4CCN([C@H](C)c5ccccc5)CC4)c3C2=O)cc1OC [Cpd 187, (R)-isoxazole-5-carboxylic acid (4-(3,4-dimethoxy-phenyl)-4-{1,3-dioxo-4-[4-(1R)-(1-phenyl-ethyl)-piperazin-1-yl]-1,3-dihydro-isoindol-2-yl}-butyl)-amide] | – |
| 27 nM | 300 nM | 19 nM | COc1ccc(C(CCCNS(=O)(=O)c2cccc3cccnc23)N2C(=O)c3cccc(N4CCN([C@H](C)c5ccccc5)CC4)c3C2=O)cc1OC (stereo partly drawn) [Cpd 109, quinoline-8-sulfonic acid (4-(3,4-dimethoxy-phenyl)-4-{1,3-dioxo-4-[4-(1R)-(1-phenyl-ethyl)-piperazin-1-yl]-1,3-dihydro-isoindol-2-yl}-butyl)-amide] | – |
| 180 nM | > 3000 nM | 460 nM | COc1ccc(C(CCCNS(=O)(=O)c2c(Cl)nc3sccn23)N2C(=O)c3cccc(N4CCN([C@H](C)c5ccccc5)CC4)c3C2=O)cc1OC (stereo partly drawn) [Cpd 93, 6-chloro-imidazo[2,1-b]thiazole-5-sulfonic acid (4-(3,4-dimethoxy-phenyl)-4-{1,3-dioxo-4-[4-(1R)-(1-phenyl-ethyl)-piperazin-1-yl]-1,3-dihydro-isoindol-2-yl}-butyl)-amide] | – |
| 49 nM | > 3000 nM | 210 nM | CCN1CCN(c2cccc3c2C(=O)N([C@H](CCCOCc2ccccc2)c2ccc(OC)c(OC)c2)C3=O)CC1 [Cpd 201, (R)-2-[4-benzyloxy-1-(3,4-dimethoxy-phenyl)-butyl]-4-(4-ethyl-piperazin-1-yl)-isoindole-1,3-dione] | – |
| 32 nM | 680 nM | 260 nM | COc1ccc([C@@H](CCCNC(=O)c2ccc(S(C)(=O)=O)s2)N2C(=O)c3cccc(N4CCN([C@H](C)c5ccccc5)CC4)c3C2=O)cc1OC [Cpd 157, (R)-5-methanesulfonyl-thiophene-2-carboxylic acid (4-(3,4-dimethoxy-phenyl)-4-{1,3-dioxo-4-[4-(1R)-(1-phenyl-ethyl)-piperazin-1-yl]-1,3-dihydro-isoindol-2-yl}-butyl)-amide] | – |
| 23 nM | 170 nM | 11 nM | COc1ccc([C@@H](CCNS(=O)(=O)O)N2C(=O)c3cccc(N4CCN([C@H](C)c5ccccc5)CC4)c3C2=O)cc1OC [Cpd 220, (R)-(3-(3,4-dimethoxy-phenyl)-3-{1,3-dioxo-4-[4-(1R)-(1-phenyl-ethyl)-piperazin-1-yl]-1,3-dihydro-isoindol-2-yl}-propyl)-sulfamic acid] | – |
| 15 nM | 1100 nM | 56 nM | COc1ccc([C@@H](CCCNC(=O)c2c(C)nn(C)c2C)N2C(=O)c3cccc(N4CCN([C@H](C)c5ccccc5)CC4)c3C2=O)cc1OC [Cpd 184, (R)-1,3,5-trimethyl-1H-pyrazole-4-carboxylic acid (4-(3,4-dimethoxy-phenyl)-4-{1,3-dioxo-4-[4-(1R)-(1-phenyl-ethyl)-piperazin-1-yl]-1,3-dihydro-isoindol-2-yl}-butyl)-amide] | – |
| 19 nM | 1300 nM | 55 nM | COc1ccc([C@@H](CCCNC(=O)c2cnn(C)c2Cl)N2C(=O)c3cccc(N4CCN([C@H](C)c5ccccc5)CC4)c3C2=O)cc1OC [Cpd 183, (R)-5-chloro-1-methyl-1H-pyrazole-4-carboxylic acid (4-(3,4-dimethoxy-phenyl)-4-{1,3-dioxo-4-[4-(1R)-(1-phenyl-ethyl)-piperazin-1-yl]-1,3-dihydro-isoindol-2-yl}-butyl)-amide] | – |
| 19 nM | 1200 nM | 89 nM | COc1ccc([C@@H](CCNC(=O)c2csc(C)n2)N2C(=O)c3cccc(N4CCN([C@H](C)c5ccccc5)CC4)c3C2=O)cc1OC [Cpd 211, (R)-2-methyl-thiazole-4-carboxylic acid (3-(3,4-dimethoxy-phenyl)-3-{1,3-dioxo-4-[4-(1R)-(1-phenyl-ethyl)-piperazin-1-yl]-1,3-dihydro-isoindol-2-yl}-propyl)-amide] | – |
| 340 nM | 2000 nM | > 300 nM | COc1ccc([C@@H](CCCNS(=O)(=O)c2cccs2)N2C(=O)c3cccc(OCCCN(C)C)c3C2=O)cc1OC [Cpd 224, (R)-thiophene-2-sulfonic acid {4-(3,4-dimethoxy-phenyl)-4-[4-(3-dimethylamino-propoxy)-1,3-dioxo-1,3-dihydro-isoindol-2-yl]-butyl}-amide] | – |
| 660 nM | 770 nM | 57 nM | CCN1CCN(c2cccc3c2C(=O)N(C(CC2CCN(S(=O)(=O)O)CC2)c2ccc(OC)c(OC)c2)C3=O)CC1 (stereo not drawn) [Cpd 233, 4-{2-(3,4-dimethoxy-phenyl)-2-[4-(4-ethyl-piperazin-1-yl)-1,3-dioxo-1,3-dihydro-isoindol-2-yl]-ethyl}-piperidine-1-sulfonic acid] | – |
| 28 nM | 460 nM | 39 nM | COc1ccc(C(CCCNS(=O)(=O)N(C)C)N2C(=O)c3cccc(N4CCN([C@H](C)c5ccccc5)CC4)c3C2=O)cc1OC (stereo partly drawn) [Cpd 115, N′-[(4-(3,4-dimethoxy-phenyl)-4-{1,3-dioxo-4-[4-(1R)-(1-phenyl-ethyl)-piperazin-1-yl]-1,3-dihydro-isoindol-2-yl}-butyl)]-N,N-dimethyl-sulfamide] | – |
| 18 nM | 350 nM | 42 nM | COc1ccc(C(CCCNS(=O)(=O)c2cn(C)cn2)N2C(=O)c3cccc(N4CCN([C@H](C)c5ccccc5)CC4)c3C2=O)cc1OC (stereo partly drawn) [Cpd 98, 1-methyl-1H-imidazole-4-sulfonic acid (4-(3,4-dimethoxy-phenyl)-4-{1,3-dioxo-4-[4-(1R)-(1-phenyl-ethyl)-piperazin-1-yl]-1,3-dihydro-isoindol-2-yl}-butyl)-amide] | – |

| Compound | IC50 [1] | IC50 [2] | Ki [3] | Ki [3, 4] |
| --- | --- | --- | --- | --- |
| CCN1CCN(c2cccc3c2C(=O)N([C@H](CCCNS(=O)(=O)c2cccs2)c2ccc(OC)c(OC)c2)C3=O)CC1 [Cpd 168, (R)-thiophene-2-sulfonic acid {4-(3,4-dimethoxy-phenyl)-4-[4-(4-ethyl-piperazin-1-yl)-1,3-dioxo-1,3-dihydro-isoindol-2-yl]-butyl}-amide] | 4.8 nM | 150 nM | – | 35 nM |
| CCN1CCN(c2cccc3c2C(=O)N([C@H](CCCNS(=O)(=O)c2cn(C)c(C)n2)c2ccc(OC)c(OC)c2)C3=O)CC1 [Cpd 203, (R)-1,2-dimethyl-1H-imidazole-4-sulfonic acid {4-(3,4-dimethoxy-phenyl)-4-[4-(4-ethyl-piperazin-1-yl)-1,3-dioxo-1,3-dihydro-isoindol-2-yl]-butyl}-amide] | 140 nM | 810 nM | – | 97 nM |
